Data published in patent US20130072505A1, “6,9-Disubstituted Purine Derivatives and Their Use for Treating Skin” (priority 2006, published 2013).

Experiments:
human skin fibroblasts = assay: short-term studies on cultured human skin fibroblasts (attachment, survival, growth, apoptosis); type: cell-based
Protocol: Several short-term, preliminary studies of the effect of 6-furfurylamino-9-(2-tetrahydropyranyl)purine on cultured human skin fibroblasts cells have been carried out. The initial study involved the addition of 6-furfurylamino-9-(2-tetrahydropyranyl)purine (40 to 400 μM) to human skin fibroblasts cells in a culture. The percentage of attachment of the cells to the surface of the culture flask was not affected after 6 hours of treatment. In the remaining experiments reported in this example, the 6-furfurylamino-9-(2-tetrahydropyranyl)purine was added directly to the culture medium at the same time as the cells were seeded.
A wider range of concentrations (from 0.01 to 500 μM) was tested for determining the effects of 6-furfurylamino-9-(2-tetrahydropyranyl)purine on the survival of cultured human skin fibroblasts after 3 days of treatment.
The effect of 6-furfurylamino-9-(2-tetrahydropyranyl)purine (0 to 400 μM) treatment on short term growth of young human fibroblasts was also evaluated. Cell growth was similar in untreated samples and in samples treated with 40, 80, and 200 μM 6-furfurylamino-9-(2-tetrahydropyranyl)purine. […] Similar experiments were carried out to determine the extent of apoptosis and beta-galactosidase staining in 6-furfurylamino-9-(2-tetrahydropyranyl)purine-treated and untreated cells.
Based on these studies, 6-furfurylamino-9-(2-tetrahydropyranyl)purine appears to be well tolerated by young and senescent human skin fibroblasts and to have positive effects in terms of reversion of actin pattern and morphology of senescent cells to relatively younger characteristics.

[1] = system: senescent human skin fibroblasts; assay: treatment of senescent human skin fibroblasts (cell number, actin staining, morphology); type: cell-based
Protocol: The effect of 6-furfurylamino-9-(2-tetrahydropyranyl)purine on senescent cells was also examined. An equal number of senescent cells were seeded in separate flasks and then treated with different concentrations of 6-furfurylamino-9-(2-tetrahydropyranyl)purine (0 to 400 μM). Cell numbers were determined after 7 and 14 days of treatment using a Coulter counter after trypsinisation and resuspension of the cells.
Late passage senescent cells with a life span of more than 95% were also treated with different concentrations of 6-furfurylamino-9-(2-tetrahydropyranyl)purine (0 to 200 μM) to assess age-related changes. The actin staining patterns were examined after three days. […] Less polymerized and diffused patterns of actin staining are generally associated with youthful characteristics of human fibroblasts. Thus, 6-furfurylamino-9-(2-tetrahydropyranyl)purine appears to revert some of the age-related changes in actin organization in senescent cells.
Senescent human skin fibroblasts were also treated with 6-furfurylamino-9-(2-tetrahydropyranyl)purine (0 to 400 μM) and evaluated for reversion of age-related changes. There were significant differences in the appearance of the cells after 7 and 30 days of treatment. […] Even at higher concentrations (200 and 400 μM), the 6-furfurylamino-9-(2-tetrahydropyranyl)purine-treated cells appeared to be smaller and have less intracellular debris as compared untreated cells.

[2] = system: Female SKH-1 hairless mice; assay: topical skin anti-aging treatment, hairless mouse model; type: in vivo; settings: 3 weeks
Description: The safety and efficacy of the 6,9-disubstituted purine derivatives of this invention as topical skin anti-aging treatments were examined using the hairless mouse model (a well established model for studying the treatments of photoaging). Female SKH-1 hairless mice (5 weeks old, 20-25 grams, Charles River Laboratories, Wilmington, Mass.) were individually housed in filter-top cages, and acclimated for 5-7 days after delivery. […] Water and mouse chow are provided ad libitum. The experimental groups (6 mice per group) included the following treatments: (1) Untreated control; (2) Vehicle control (MillCreek Lotion); […] The various treatments were applied daily (Monday-Friday) for 3 weeks to the dorsal skin (about 2 cm×2 cm) of the hairless mice at a dosage rate of about 20 mg. At baseline (prior to the 1st treatment), and weekly, the dorsal skin was measured for transepidermal water loss (TEWL), skin moisture content, and skin elasticity. […] This instrument was equipped with dual probes which are placed on the skin surface and a quantitative measurement taken of the respective parameters and the measurements recorded on an integrated computer. […] The slides were weakly counter stained in Mayer's hematoxylin and scored under a light microscope for the number of BrdU-positive cells per mm of epidermis for each section. […]

c1coc(CNc2ncnc3c2ncn3C2CCCCO2)c1 (centres unmarked) [6-furfurylamino-9-(2-tetrahydropyranyl)purine]
toxicity or other negative effects on survival of cultured human skin fibroblasts (human skin fibroblasts; 0.01 to 500 μM, 3 days of treatment): No toxicity or other negative effects were apparent | short term growth of young human fibroblasts vs untreated (human skin fibroblasts; 40, 80, and 200 μM): similar | percentage of attachment of the cells to the surface of the culture flask (human skin fibroblasts; 40 to 400 μM, after 6 hours of treatment): not affected | short term growth of young human fibroblasts (human skin fibroblasts; about 400 μM): slight decrease in growth of cells | cell growth and survival (human skin fibroblasts; between 1 and 200 μM, 3 days of treatment): slight stimulation of cell growth and survival | apoptosis and beta-galactosidase staining (premature senescence) (human skin fibroblasts; various doses (0 to 400 μM)): no suggestion of induction of apoptosis or premature senescence | induction of additional growth or cell division (human skin fibroblasts; young and senescent human skin fibroblasts): No significant induction of additional growth or cell division | cell number of senescent cells ([1]; 0 to 400 μM, after 7 days): No negative effects | appearance of the cells (reversion of age-related changes) ([1]; 0 to 400 μM, after 30 days of treatment): younger looking in terms of becoming thinner and arranged in arrays | survival of senescent cells ([1]; 200 μM or more, after 14 days): slight negative effect on the survival of senescent cells | actin staining pattern ([1]; late passage senescent cells, 0 to 200 μM, after three days): changed the actin staining pattern from a highly polymerized pattern to a less polymerized filament pattern | cell number of senescent cells ([1]; lower concentrations (below 200 μM), after 14 days): no negative effects | erythema (irritation) score ([2]; topical daily (Monday-Friday), Grade 0=no response to Grade 6=necrosis): < 1 Grade | Skin Moisture Content (skin conductance) ([2]; topical daily): one of the highest increases in skin moisture
